A word on the IC50: it is the concentration that gives 50% inhibition.

This is an account of results in patent US5766848A (Synaptic Pharmaceutical Corporation, priority 1994, dated 1998).

For data set [1] the following is noted: literature reports; cited from earlier work.
The next data set deals with human GAT-1 (Homo sapiens, UniProt P30531). Conditions: read-out: IC50, human GAT-1, inhibition of [3H]GABA uptake.
The conditions of data set [2]: human volunteers (CI-966); clinical reports (Tiagabine); cited from earlier work.
The target of a further data set is T1, human GAT-3 (Homo sapiens, UniProt P48066).
T1 construct: expressed in transfected cells
T1 sequence (P48066 1-632): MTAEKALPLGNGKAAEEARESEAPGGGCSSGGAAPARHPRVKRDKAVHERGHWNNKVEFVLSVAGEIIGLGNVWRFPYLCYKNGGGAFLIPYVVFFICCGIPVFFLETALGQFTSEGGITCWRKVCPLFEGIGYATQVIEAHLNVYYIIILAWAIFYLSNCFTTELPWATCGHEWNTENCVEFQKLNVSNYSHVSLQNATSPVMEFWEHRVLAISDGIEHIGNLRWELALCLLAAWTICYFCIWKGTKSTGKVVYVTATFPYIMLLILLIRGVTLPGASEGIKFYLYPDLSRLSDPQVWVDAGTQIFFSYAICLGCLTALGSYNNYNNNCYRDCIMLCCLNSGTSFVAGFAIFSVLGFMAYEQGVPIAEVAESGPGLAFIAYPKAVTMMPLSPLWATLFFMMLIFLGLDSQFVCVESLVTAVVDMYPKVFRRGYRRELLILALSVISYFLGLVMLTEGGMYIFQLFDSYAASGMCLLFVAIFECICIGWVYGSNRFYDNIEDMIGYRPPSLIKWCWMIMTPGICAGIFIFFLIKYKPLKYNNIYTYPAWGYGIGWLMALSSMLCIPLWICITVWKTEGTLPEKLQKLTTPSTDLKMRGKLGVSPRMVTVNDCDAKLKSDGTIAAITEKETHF
The data set is described as follows: Inhibition of [3H]GABA uptake, human GAT-3 stable LM(tk-) cell line. The conditions noted are these: read-out: IC50, human GAT-3, inhibition of [3H]GABA uptake, Table 9, means ± S.E.M. It counts as cell-based.

For the next data set, the target named is T2, human BGT-1 (Homo sapiens, UniProt P48065).
T2 sequence (P48065 1-614 C10Y): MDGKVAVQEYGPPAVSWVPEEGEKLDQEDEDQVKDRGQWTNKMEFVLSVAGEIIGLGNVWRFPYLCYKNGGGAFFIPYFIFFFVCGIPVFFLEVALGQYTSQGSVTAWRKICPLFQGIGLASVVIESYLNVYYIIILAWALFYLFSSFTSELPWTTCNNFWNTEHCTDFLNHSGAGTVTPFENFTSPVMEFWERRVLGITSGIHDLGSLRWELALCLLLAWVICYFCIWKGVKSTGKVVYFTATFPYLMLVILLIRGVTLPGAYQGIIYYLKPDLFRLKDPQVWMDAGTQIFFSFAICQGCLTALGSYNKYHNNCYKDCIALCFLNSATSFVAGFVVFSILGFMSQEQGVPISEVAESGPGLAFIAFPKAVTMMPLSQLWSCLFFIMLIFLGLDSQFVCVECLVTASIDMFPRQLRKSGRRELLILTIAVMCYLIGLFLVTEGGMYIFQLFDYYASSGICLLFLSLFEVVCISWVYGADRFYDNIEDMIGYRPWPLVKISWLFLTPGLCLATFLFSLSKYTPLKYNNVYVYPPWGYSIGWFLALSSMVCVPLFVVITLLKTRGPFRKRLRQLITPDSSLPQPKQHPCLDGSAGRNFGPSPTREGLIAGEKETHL
The conditions noted are these: read-out: IC50, human BGT-1, inhibition of [3H]GABA uptake; Table 9; stable LM(tk-) cell line; means ± S.E.M.

The conditions of data set [3]: Phase II clinical trials; cited from earlier work.
Another data set has as its target T3, rat GAT-2 (Rattus norvegicus, UniProt P31646).
T3 construct: expressed in transfected cells
T3 sequence (P31646 1-602): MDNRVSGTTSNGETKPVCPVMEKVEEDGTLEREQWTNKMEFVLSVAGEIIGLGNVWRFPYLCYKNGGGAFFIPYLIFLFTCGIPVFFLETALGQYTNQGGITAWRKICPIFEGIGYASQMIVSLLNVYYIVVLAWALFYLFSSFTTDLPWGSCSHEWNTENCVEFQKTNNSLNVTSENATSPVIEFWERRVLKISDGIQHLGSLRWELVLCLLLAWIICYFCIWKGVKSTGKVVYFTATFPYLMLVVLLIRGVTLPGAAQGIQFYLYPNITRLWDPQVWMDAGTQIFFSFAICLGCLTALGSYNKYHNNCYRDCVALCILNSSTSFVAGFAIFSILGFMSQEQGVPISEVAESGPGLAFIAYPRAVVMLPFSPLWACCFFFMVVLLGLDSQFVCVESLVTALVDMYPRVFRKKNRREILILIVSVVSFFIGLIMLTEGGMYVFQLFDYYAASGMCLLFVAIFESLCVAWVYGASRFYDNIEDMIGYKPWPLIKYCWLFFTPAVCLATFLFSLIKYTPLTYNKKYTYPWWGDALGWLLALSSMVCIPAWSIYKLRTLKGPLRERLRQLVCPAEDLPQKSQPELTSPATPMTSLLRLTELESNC
Kind of data set: Inhibition of [3H]GABA uptake, rat GAT-2 stable LM(tk-) cell line. The conditions noted are these: read-out: IC50, rat GAT-2, inhibition of [3H]GABA uptake, Table 9, means ± S.E.M. It counts as cell-based.

Chain of human GAT-1 (P30531 whole entry): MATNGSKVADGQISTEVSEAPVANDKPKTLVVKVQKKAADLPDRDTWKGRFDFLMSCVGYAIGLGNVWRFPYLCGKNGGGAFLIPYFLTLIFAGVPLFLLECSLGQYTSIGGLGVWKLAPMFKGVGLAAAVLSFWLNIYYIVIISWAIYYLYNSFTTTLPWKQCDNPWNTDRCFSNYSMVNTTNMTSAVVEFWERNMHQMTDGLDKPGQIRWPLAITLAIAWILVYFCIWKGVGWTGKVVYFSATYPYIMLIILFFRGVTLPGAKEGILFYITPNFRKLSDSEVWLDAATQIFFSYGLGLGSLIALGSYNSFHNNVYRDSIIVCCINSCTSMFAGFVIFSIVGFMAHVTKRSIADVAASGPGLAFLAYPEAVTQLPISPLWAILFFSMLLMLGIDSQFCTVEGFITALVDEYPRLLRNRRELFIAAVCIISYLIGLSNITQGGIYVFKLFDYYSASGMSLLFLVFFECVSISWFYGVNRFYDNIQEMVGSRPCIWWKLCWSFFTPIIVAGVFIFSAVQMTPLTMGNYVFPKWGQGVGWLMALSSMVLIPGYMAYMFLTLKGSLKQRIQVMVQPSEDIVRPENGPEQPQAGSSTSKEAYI
Protocol for human BGT-1: Cells were grown under standard conditions (37° C., 5% CO2) in Dulbecco's modified Eagles's medium (GIBCO, Grand Island, N.Y.).
After 10 minutes the medium was removed and unlabeled drugs in HBS were added (450 μl/well). […] Plates were incubated at 37° C. for 10 minutes, then washed rapidly 3× with ice-cold HBS, using a 24-position plate washer (Brandel, Gaithersburg, Mass.; model PW-12). Cells were solubilized with 0.05% sodium deoxycholate/0.1N NaOH (0.25 ml/well), an aliquot neutralized with 1N HCl, and radioactivity was determined by scintillation counting. Protein was quantified in an aliquot of the solubilized cells using a BIO-RAD protein assay kit, according to the manufacturer's directions.
Data Analysis: Competition curves were conducted in duplicate, using 10 concentrations of unlabeled drug. […] All data throughout the paper represent means±SEM.
(§1) Cells were grown under standard conditions (37° C., 5% CO2) in DMEM (Dulbecco's modified Eagles's medium; GIBCO, Grand Island, N.Y.).
(§2) Cells grown in 24-well plates were washed 3× with HEPES-buffered saline (HBS, in mM: NaCl, 150; HEPES, 20; CaCl2, 1; glucose, 10; KCl, 5; MgCl2 1; pH 7.4) and allowed to equilibrate on a 37° C. slide warmer. After 10 minutes the medium was removed and unlabeled drugs in HBS were added (450 μl/well). […] Plates were incubated at 37° C. for 10 minutes, then washed rapidly 3× with ice-cold HBS, using a 24-position plate washer (Brandel, Gaithersburg, Mass.; model PW-12). Cells were solubilized with 0.05% sodium deoxycholate/0.1N NaOH (0.25 ml/well), an aliquot neutralized with 1N HCl, and radioactivity was determined by scintillation counting. Protein was quantified in an aliquot of the solubilized cells using a BIO-RAD protein assay kit, according to the manufacturer's directions.
(§3) Competition curves were conducted in duplicate, using 10 concentrations of unlabeled drug. […] All data throughout the paper represent means±S.E.M.
Protocol for human GAT-1: as §1, §2, §3
Protocol for human GAT-3: as §1, §2, §3
Protocol for rat GAT-2: as §1, §2, §3

`O=C(O)C1=CCCN(CCOC(c2ccc(C(F)(F)F)cc2)c2ccc(C(F)(F)F)cc2)C1` [CI-966, [1-[2-[bis4(trifluoromethyl)phenyl]methoxy]ethyl]-1,2,5,6-tetrahydro-3-pyridinecarboxylic acid]: the “anticonvulsive activity in animals” value in data set [1] is listed as “display anticonvulsive activity”. Besides, the figures for the IC50 on human GAT-1, on human GAT-3 and at human BGT-1 were 0.26 ± 0.05 µM, 333 ± 76 µM and 300 ± 10 µM, respectively. Moreover, the “severe adverse effects in humans” value in data set [2] is given as “Severe adverse effects were noted”.

Take `Cc1ccsc1C(=CCCN1CCC[C@@H](C(=O)O)C1)c1sccc1C` [Tiagabine, (R)-1-[4,4-Bis(3-methyl-2-thienyl)-3-butenyl]-3-piperidencarboxylic acid]: the “anticonvulsive activity in animals” value in data set [1] is “display anticonvulsive activity”. Moreover, the IC50 on human GAT-3 is 917 ± 193 µM; at human BGT-1, 1670 ± 722 µM; on rat GAT-2, 1410 ± 250 µM. For the same compound, the “anti-seizure activity in patients” value in data set [3] is recorded as “demonstrated anti-seizure activity”.
